From paper PMC10301845, “Characterization of a Novel M4 PAM PET Radioligand [11C]PF06885190 in Nonhuman Primates (NHP)” (Molecules, 2023)

Test system: M4
Assay: PET measurements of brain distribution in NHP (SUV, VT by 1-TC and Logan)
Type: in vivo, cynomolgus monkey (Macaca fascicularis)
Parameters: VT 1-TC Baseline: unit not given here
Conditions: for VT 1-TC %Decrease / VT Logan %Decrease: baseline vs pretreatment with CVL-231; for VT 1-TC Pretreatment / VT Logan Pretreatment: pretreatment with CVL-231
Protocol: Two male cynomolgus monkeys (Macaca fascicularis, NHP) M1 and M2, with body weight of 7.8 kg and 7.1 kg, respectively, were studied on three different experimental days for a total of six PET measurements. Both NHPs underwent two PET measurements on the same day. The first PET measurement was performed with [^11C]PF06885190, followed by the second PET measurement after pretreatment with either CVL-231 or donepezil. CVL-231 (0.24 mg/kg, IV) was administrated 10 min before the administration of [^11C]PF06885190 via a constant infusion (0.0027 mg/min/kg) throughout the whole PET measurement. Donepezil (0.25 mg/kg) was administrated 30 min before the administration of [^11C]PF06885190. Both NHPs were supplied by the Astrid Fagraeus Laboratory of the Swedish Institute for Infectious Disease Control (SMI), Solna, Sweden. The study was approved by the Animal Ethics Committee of the Swedish Animal Welfare Agency and was performed according to “Guidelines for planning, conducting and documenting experimental research” (Dnr 4820/06-600) of the KI as well as the “Guide for the Care and Use of Laboratory Animals” [26]. Anesthesia was initiated at Astrid Fagraeus Laboratory either by intramuscular injection of ketamine hydrochloride (10 mg/kg) and maintained by the administration of a mixture of isoflurane, oxygen, and medical air through endotracheal intubation, or by intravenous infusion of a mixture of ketamine hydrochloride (4 mg/kg/h) and xylazine hydrochloride (0.4 mg/kg/h). To fix the position of the head of the NHP during the course of whole PET measurement, a prototype device was used. Body temperature was maintained by a Bair Hugger-Model 505 (Arizant Health Care Inc., Eden Prairie, MN 55344, USA) and monitored by an oral thermometer. ECG, heart rate, respiratory rate and oxygen saturation were continuously monitored throughout the experiments and blood pressure was monitored every 15 min.
All the PET measurements in this study were performed by using a High Resolution Research Tomograph (HRRT) (Siemens Molecular Imaging) scanner. The corresponding in-plane resolution with OP-3D-OSEM PSF was 1.5 mm full width at half-maximum (FWHM) at the center of the field of view (FOV) and 2.4 mm at 10 cm off-center directions. List-mode data were acquired continuously for 123 min immediately after intravenous injection of [^11C]PF06885190. Images were reconstructed by the ordinary Poisson-3D-ordered subset expectation maximization (OP-3D-OSEM) algorithm. Prior to each PET acquisition, a 6 min transmission scan was performed, using a single ^137Cs source, for attenuation and scatter correction. Brain magnetic resonance imaging was performed in a 1.5-T GE Signa system (General Electric, Milwaukee, WI, USA). A T1-weighted image was obtained for co-registration with PET and delineation of anatomic brain regions. The T1 sequence was a 3D spoiled gradient-recalled (SPGR) protocol with the following settings: repetition time (TR) 21 ms, flip angle 35°; FOV 12.8; matrix 256 × 256 × 128; 128 × 1.0 mm slices; 2 NEX. The sequence was optimized for trade-off between a minimum of scanning time and a maximum of spatial resolution and contrast between gray and white matter.
For both NHPs, the radioligand [^11C]PF06885190 was administrated with an intravenous (i.v.) injection. The regions of interests (ROIs) were delineated manually on MRI images of each NHP for the whole brain, cerebellum, caudate, putamen, thalamus, frontal cortex, temporal cortex, hippocampus, anterior cingulate cortex, posterior cingulate cortex, parietal cortex, occipital cortex, amygdala, ventral striatum and insula. The summed PET images of the whole duration were co-registered to the MRI image of the individual NHP. After applying the co-registration parameters to the dynamic PET data, the time-activity curves (TACs) of brain regions were generated for each PET measurement. Standardized uptake value (SUV) was calculated for each brain region. […]

[1] = anterior cingulate cortex, baseline
[2] = posterior cingulate cortex, baseline

SMILES: Cc1nc(N[11CH3])c2c(c1C)CN(C(=O)C[C@H]1C[C@@H]1c1ccc(F)nc1)C2 [[^11C]PF06885190]
- Change of VT from baseline (after pretreatment with M4 PAM CVL-231): around −10%
- VT 1-TC Baseline (amygdala, baseline): 2.290
- VT Logan Baseline (amygdala, baseline): 2.549
- VT 1-TC %Decrease (amygdala): 6.7%
- VT Logan %Decrease (amygdala): 9.6%
- VT 1-TC Pretreatment (amygdala): 2.137
- VT Logan Pretreatment (amygdala): 2.304
- VT 1-TC Baseline [1]: 2.245
- VT Logan Baseline [1]: 2.503
- VT 1-TC %Decrease (anterior cingulate cortex): 9.6%
- VT Logan %Decrease (anterior cingulate cortex): 8.4%
- VT 1-TC Pretreatment (anterior cingulate cortex): 2.030
- VT Logan Pretreatment (anterior cingulate cortex): 2.293
- VT 1-TC %Decrease (average of brain regions): 10.3%
- VT Logan %Decrease (average of brain regions): 12%
- Whole brain uptake at peak (baseline conditions, i.v.): 2.0–4.1 SUV
- wash-out: time to drop to half of the peak (brain, baseline): around 10 min
- VT 1-TC Baseline (caudate, baseline): 2.388
- VT Logan Baseline (caudate, baseline): 2.683
- VT 1-TC %Decrease (caudate): 1.3%
- VT Logan %Decrease (caudate): 7.8%
- VT 1-TC Pretreatment (caudate): 2.357
- VT Logan Pretreatment (caudate): 2.475
- VT 1-TC Baseline (cerebellum, baseline): 2.205
- VT Logan Baseline (cerebellum, baseline): 3.055
- VT 1-TC %Decrease (cerebellum): 15.0%
- VT Logan %Decrease (cerebellum): 21.4%
- VT 1-TC Pretreatment (cerebellum): 1.875
- VT Logan Pretreatment (cerebellum): 2.401
- change of VT after administration of donepezil (donepezil 0.25 mg/kg 30 min before radioligand): No significant change
- VT 1-TC Baseline (frontal cortex, baseline): 2.521
- VT Logan Baseline (frontal cortex, baseline): 2.940
- VT 1-TC %Decrease (frontal cortex): 15.1%
- VT Logan %Decrease (frontal cortex): 18.6%
- VT 1-TC Pretreatment (frontal cortex): 2.140
- VT Logan Pretreatment (frontal cortex): 2.394
- VT 1-TC Baseline (hippocampus, baseline): 2.361
- VT Logan Baseline (hippocampus, baseline): 2.595
- VT 1-TC %Decrease (hippocampus): 9.1%
- VT Logan %Decrease (hippocampus): 9.8%
- VT 1-TC Pretreatment (hippocampus): 2.146
- VT Logan Pretreatment (hippocampus): 2.341
- VT 1-TC Baseline (insula, baseline): 2.617
- VT Logan Baseline (insula, baseline): 2.811
- VT 1-TC %Decrease (insula): 11.6%
- VT Logan %Decrease (insula): 6.4%
- VT 1-TC Pretreatment (insula): 2.314
- VT Logan Pretreatment (insula): 2.631
- VT 1-TC Baseline (occipital cortex, baseline): 2.871
- VT Logan Baseline (occipital cortex, baseline): 3.534
- VT 1-TC %Decrease (occipital cortex): 14.2%
- VT Logan %Decrease (occipital cortex): 18.7%
- VT 1-TC Pretreatment (occipital cortex): 2.462
- VT Logan Pretreatment (occipital cortex): 2.873
- VT 1-TC Baseline (parietal cortex, baseline): 2.515
- VT Logan Baseline (parietal cortex, baseline): 2.709
- VT 1-TC %Decrease (parietal cortex): 16.1%
- VT Logan %Decrease (parietal cortex): 14.5%
- VT 1-TC Pretreatment (parietal cortex): 2.109
- VT Logan Pretreatment (parietal cortex): 2.316
- VT 1-TC Baseline [2]: 2.384
- VT Logan Baseline [2]: 2.723
- VT 1-TC %Decrease (posterior cingulate cortex): 17.7%
- VT Logan %Decrease (posterior cingulate cortex): 18.3%
- VT 1-TC Pretreatment (posterior cingulate cortex): 1.963
- VT Logan Pretreatment (posterior cingulate cortex): 2.225
- decrease after pretreatment (pretreatment with specific M4 ligand CVL-231): 10%
- VT 1-TC Baseline (putamen, baseline): 2.632
- VT Logan Baseline (putamen, baseline): 3.006
- VT 1-TC %Decrease (putamen): 3.5%
- VT Logan %Decrease (putamen): 7.0%
- VT 1-TC Pretreatment (putamen): 2.539
- VT Logan Pretreatment (putamen): 2.795
- VT 1-TC Baseline (temporal cortex, baseline): 2.690
- VT Logan Baseline (temporal cortex, baseline): 2.992
- VT 1-TC %Decrease (temporal cortex): 11.4%
- VT Logan %Decrease (temporal cortex): 9.2%
- VT 1-TC Pretreatment (temporal cortex): 2.383
- VT Logan Pretreatment (temporal cortex): 2.717
- VT 1-TC Baseline (thalamus, baseline): 2.496
- VT Logan Baseline (thalamus, baseline): 2.778
- VT 1-TC %Decrease (thalamus): 6.4%
- VT Logan %Decrease (thalamus): 14.8%
- VT 1-TC Pretreatment (thalamus): 2.337
- VT Logan Pretreatment (thalamus): 2.367
- VT 1-TC Baseline (ventral striatum, baseline): 2.305
- VT Logan Baseline (ventral striatum, baseline): 2.398
- VT 1-TC %Decrease (ventral striatum): 7.0%
- VT Logan %Decrease (ventral striatum): 3.1%
- VT 1-TC Pretreatment (ventral striatum): 2.144
- VT Logan Pretreatment (ventral striatum): 2.324
